pEC50: −log10 of the molar value.
Target: T1, BminOR16 (Bactrocera minax, UniProt A0A6N0A5X5)
T1 construct: gene OR16; full-length ORF (404 amino acid residues), GenBank MN537977; with BminOrco
T1 sequence (A0A6N0A5X5 1-405): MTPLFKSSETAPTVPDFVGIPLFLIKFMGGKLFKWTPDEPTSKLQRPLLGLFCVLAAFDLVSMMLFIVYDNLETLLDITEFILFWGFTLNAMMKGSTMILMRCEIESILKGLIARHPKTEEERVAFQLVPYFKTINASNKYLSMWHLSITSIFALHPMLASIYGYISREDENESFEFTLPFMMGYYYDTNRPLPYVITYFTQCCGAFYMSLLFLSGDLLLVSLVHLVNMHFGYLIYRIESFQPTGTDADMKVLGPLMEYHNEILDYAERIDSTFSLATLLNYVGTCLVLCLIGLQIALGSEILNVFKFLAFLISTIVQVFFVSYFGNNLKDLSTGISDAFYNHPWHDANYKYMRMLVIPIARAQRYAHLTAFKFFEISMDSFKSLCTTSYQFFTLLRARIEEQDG
T1 sequence (A0A3G2LEL3 1-517 partner): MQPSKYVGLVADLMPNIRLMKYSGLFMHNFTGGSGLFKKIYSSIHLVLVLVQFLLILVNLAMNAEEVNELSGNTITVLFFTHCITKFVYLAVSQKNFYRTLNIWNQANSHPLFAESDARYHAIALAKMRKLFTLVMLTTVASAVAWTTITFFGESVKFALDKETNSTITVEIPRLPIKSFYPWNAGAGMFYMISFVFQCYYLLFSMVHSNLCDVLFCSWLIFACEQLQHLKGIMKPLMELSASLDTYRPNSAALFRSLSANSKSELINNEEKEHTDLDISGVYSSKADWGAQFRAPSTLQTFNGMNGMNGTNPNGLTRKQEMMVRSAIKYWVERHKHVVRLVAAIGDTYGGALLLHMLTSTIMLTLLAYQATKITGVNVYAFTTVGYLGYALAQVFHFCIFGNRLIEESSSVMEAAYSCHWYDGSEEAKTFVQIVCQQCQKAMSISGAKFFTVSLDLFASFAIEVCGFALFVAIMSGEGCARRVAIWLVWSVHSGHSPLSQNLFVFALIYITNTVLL
Test: two-electrode voltage clamp in Xenopus oocytes, mean current at […]
Assay type: cell-based

CCCCCCCCCCCO [compound 35, undecanol] was tested, and the “two-electrode voltage clamp in Xenopus oocytes, mean current at 10^-4 M” value was 87 nA.

Target: T2, BminOR3 (Bactrocera minax, UniProt A0A6N0A5L8)
T2 construct: gene OR5; full-length ORF (450 amino acid residues), GenBank MN537976; with BminOrco
T2 sequence (A0A6N0A5L8 1-451): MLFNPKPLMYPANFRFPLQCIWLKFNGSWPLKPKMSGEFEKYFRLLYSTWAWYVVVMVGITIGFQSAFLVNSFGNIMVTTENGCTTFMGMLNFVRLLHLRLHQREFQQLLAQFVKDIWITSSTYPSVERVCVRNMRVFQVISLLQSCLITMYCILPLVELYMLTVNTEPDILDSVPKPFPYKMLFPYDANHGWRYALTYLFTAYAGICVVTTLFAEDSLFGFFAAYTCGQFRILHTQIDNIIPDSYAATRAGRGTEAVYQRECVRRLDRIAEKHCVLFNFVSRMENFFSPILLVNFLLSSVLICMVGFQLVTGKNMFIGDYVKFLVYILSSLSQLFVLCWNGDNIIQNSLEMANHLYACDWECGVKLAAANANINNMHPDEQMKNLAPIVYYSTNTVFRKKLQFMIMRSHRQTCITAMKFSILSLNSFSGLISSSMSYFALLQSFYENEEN
T2 sequence (A0A3G2LEL3 1-517 partner): T1 sequence (A0A3G2LEL3 1-517 partner)
Test: two-electrode voltage clamp in Xenopus oocytes co-expressing BminOR3/BminOrco, dose-response
Assay type: cell-based
Excerpt: two-electrode voltage clamp in Xenopus oocytes co-expressing BminOR3/BminOrco, dose-response on BminOR3 | Dose-response curve of BminOR3/BminOrco Xenopus oocytes to 1-octen-3-ol.

Molecule C=CC(O)CCCCC (stereo not shown) [compound 2, 1-octen-3-ol] has a pEC50 of 6.46.

Target: T3, BminOR12 (Bactrocera minax, UniProt A0A6H1V5Y2)
T3 construct: gene OR12; full-length ORF (415 amino acid residues), GenBank MN855530; with BminOrco
T3 sequence (A0A6H1V5Y2 1-415): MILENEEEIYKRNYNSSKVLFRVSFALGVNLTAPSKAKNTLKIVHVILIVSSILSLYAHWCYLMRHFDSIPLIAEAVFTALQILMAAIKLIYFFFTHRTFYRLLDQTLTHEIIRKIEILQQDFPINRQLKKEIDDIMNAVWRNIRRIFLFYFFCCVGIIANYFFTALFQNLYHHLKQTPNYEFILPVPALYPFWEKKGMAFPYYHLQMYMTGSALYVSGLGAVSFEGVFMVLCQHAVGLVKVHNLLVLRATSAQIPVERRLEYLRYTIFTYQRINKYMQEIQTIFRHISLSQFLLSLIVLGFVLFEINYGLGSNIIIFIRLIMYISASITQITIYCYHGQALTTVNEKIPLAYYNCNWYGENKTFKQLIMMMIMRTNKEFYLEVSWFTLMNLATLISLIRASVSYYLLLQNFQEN
T3 sequence (A0A3G2LEL3 1-517 partner): T1 sequence (A0A3G2LEL3 1-517 partner)
Test: two-electrode voltage clamp in Xenopus oocytes, mean current at […]
Assay type: cell-based
Excerpt: The respective mean response values of these are | BminOR12/BminOrco responded to eight compounds: benzyl alcohol, (S)-(+)-carvone, 1-octanol, butyl propionate, butyl acrylate

Point of comparison: CC/C=C\CCOC(C)=O [compound 43, (Z)-3-hexenyl acetate], “two-electrode voltage clamp in Xenopus oocytes, mean current at 10^-4 M” value 91 nA. Against it:
- CCCCOC(=O)CC [compound 31, butyl propionate] — lower, 60 nA
- O=Cc1ccccc1 [compound 9, benzaldehyde] — higher, 94 nA
- C=C(C)[C@H]1CC=C(C)C(=O)C1 [compound 15, (S)-(+)-carvone] — lower, 34 nA
- OCc1ccccc1 [compound 16, benzyl alcohol] — lower, 33 nA
- COC(=O)c1ccccc1O [compound 10, methyl salicylate] — higher, 138 nA
- C=CC(=O)OCCCC [compound 40, butyl acrylate] — lower, 63 nA
- CCCCCCCCO [compound 37, 1-octanol] — lower, 46 nA
